Active and inactive are the calls of the source. No cut-off for these calls is given here.
Columns and labels:
[1] = Percent inhibition at 100 uM against peroxidation of methyl linoleate / DMVN in TBA /methanol medium at 40 degree Centigrade
[2] = Inhibition against peroxidation of liposomal suspension of dilinoleoylphosphatidylcholine (DPLC) indicated by DMVN at 40 degree Centigrade
Bos taurus [3] = species on record: Bos taurus; test: Antioxidant activity in bovine heart mitochondria using iron(II) / dihydroxy fumaric acid (DHF); type: functional
[4] = Reducing activity to scavenge 10 uM 1, 1-diphenylpicrylhydrazyl (DPPH); type: functional
[5] = Reducing activity to scavenge 10 uM 1, 1-diphenylpicrylhydrazyl (DPPH); inactive; type: functional
Bos taurus [6] = species on record: Bos taurus; test: Tested for antioxidant activity using bovine heart mitochondria and iron(II) / dihydroxy fumaric acid (DHF) at 100 uM; type: functional
[7] = Inhibition time for 20 uM during peroxidation of methyl linoleate / DMVN in TBA /methanol medium at 40 degree Centigrade
[8] = Inhibition time for 20 uM during peroxidation of liposomal suspension of dilinoleoylphosphatidylcholine (DPLC) indicated by DMVN at 40 degree Centigrade
[9] = Inhibition time for 20 uM during peroxidation of methyl linoleate / DMVN in TBA /methanol medium at 40 degree centigrade; inactive
[10] = Inhibition time for 20 uM during peroxidation of liposomal suspension of dilinoleoylphosphatidylcholine (DPLC) indicated by DMVN at 40 degree centigrade; inactive
[11] = Partition coefficient (logP); type: physicochemical; details: octanol/water
[12] = Percent inhibition at 100 uM against peroxidation of liposomal suspension of dilinoleoylphosphatidylcholine (DPLC) indicated by DMVN at 40 degree Centigrade
Bos taurus [13] = species on record: Bos taurus; test: Tested for antioxidant activity using bovine heart mitochondria and iron(II) / dihydroxy fumaric acid (DHF); type: functional

| Structure (SMILES) | IC50 (Bos taurus [3]) [µM] | T inh [7] [s] | RC10 [4] [µM] | inhibition (Bos taurus [6]) [%] | T inh [8] [s] | also measured |
| --- | --- | --- | --- | --- | --- | --- |
| Cn1c(=O)[nH]c(=O)c2c1[nH]c(=O)n2C |  |  |  | 5 |  | RC10 [5]: inactive |
| Cn1c(O)nc2[nH]c(=O)[nH]c(=O)c21 |  |  | 20 | 20 |  |  |
| Cc1c(C)c2c(c(C)c1O)CCC(C)(C(=O)O)O2 (centres undefined) [TROLOX] | 5 | 195 | 3.7 |  | 15000 |  |
| CCCCCCCCCCCCCCCCNc1nc(O)nc(O)c1N | 0.9 | 150 | 6.4 |  | 2020 |  |
| CCCCCCCCCCCCNc1cc(O)nc(O)n1 |  |  |  | 2 |  | T inh [9]: inactive; RC10 [5]: inactive; T inh [10]: inactive |
| Cn1c(=O)[nH]c2c(=O)[nH]c(=O)[nH]c21 |  |  | 5 | 9 |  |  |
| Cn1c(=O)[nH]c2[nH]c(=O)n(C)c2c1=O |  |  | 14 | 14 |  |  |
| Cn1c(N)c(N)c(=O)[nH]c1=O | 82 | 156 | 4.5 |  | 800 | logP [11]: -1.4 |
| CCCCCCCCCCCCn1c(=O)n(C)c(=O)c2c1n(C)c(=O)n2C |  |  |  | 5 |  | inhibition [1]: 0.7%; RC10 [5]: inactive; inhibition [12]: 0.5% |
| Oc1nc(O)c2nc(O)[nH]c2n1 |  |  | 4.5 | 5 |  | inhibition [1]: 7%; inhibition [12]: 0.5% |
| Cn1c(=O)[nH]c2[nH]c(=O)[nH]c2c1=O |  |  | 4.5 | 10 |  | inhibition [1]: 13% |
| Cn1c(=O)c2[nH]c(=O)[nH]c2n(C)c1=O |  |  | 3.5 | 36 |  |  |
| Nc1[nH]c(=O)[nH]c(=O)c1N | 100 |  | 7 |  |  | logP [11]: -1.92 |
| CCCCCCn1c(=O)[nH]c(=O)c2[nH]c(O)nc21 |  |  | 4.5 | 26 |  | logP [11]: -0.02 |
| CCCCCCCCCCCCn1c(=O)cc(N)[nH]c1=O |  |  |  | 1 |  |  |
| O=c1[nH]c(=O)c2[nH]c(=O)[nH]c2[nH]1 [URIC ACID] |  |  |  |  |  | logP [11]: -2.91 |
| Cc1c(C)c2c(c(C)c1O)CC[C@@](C)(CCC[C@H](C)CCC[C@H](C)CCCC(C)C)O2 |  | 190 | 6 | 46 |  | T inh [10]: inactive |
| Cn1c(=O)[nH]c(N)c(N)c1=O | 50 |  | 6 |  |  |  |
| Cn1c(=O)[nH]c(=O)c2[nH]c(O)nc21 |  |  | 3.5 | 11 |  | inhibition [1]: 10% |

Second part, led by results:

| IC50 (Bos taurus [3]) [µM] | T inh [7] [s] | Structure (SMILES) | RC10 [4] [µM] | inhibition (Bos taurus [6]) [%] | T inh [8] [s] | also measured |
| --- | --- | --- | --- | --- | --- | --- |
| 1.25 |  | CCCCCCCCCCCCn1c(=O)[nH]c2[nH]c(O)nc2c1=O | 5.2 |  |  | inhibition [1]: 25%; IC50 [2]: 10 µM |
| 0.57 | 84 | CCCCCCCCCCCCNc1c(N)nc(O)nc1O | 4.5 |  | 6000 |  |
| 0.24 | 126 | CCCCCCCCCCCCn1c(N)c(N)c(=O)n(C)c1=O | 5 |  | 3150 |  |
| 1 |  | CCCCCCCCCCCCn1c(O)nc2c(=O)[nH]c(=O)[nH]c21 | 6.2 |  |  | inhibition [1]: 13%; IC50 [2]: 11 µM |
| 0.85 |  | CCCCCCCCCCCCn1c(=O)n(C)c(=O)c2[nH]c(O)nc21 | 3 |  |  | inhibition [1]: 15%; IC50 [2]: 18 µM |
| 0.67 |  | CCCCCCCCCCCCNc1c(N)n(Cc2ccccc2)c(=O)[nH]c1=O | 6.5 |  |  |  |
| 0.28 | 114 | CCCCCCCCCCn1c(N)c(N)c(=O)[nH]c1=O | 5.6 |  | 3700 | logP [11]: 3.04 |
| 0.27 | 102 | CCCCCCCCCCCCn1c(N)c(N)c(=O)[nH]c1=O | 7 |  | 3350 |  |
| 22 | 114 | CCCCCCCCCCCCCCCCCCNc1[nH]c(=O)n(C)c(=O)c1N | 6.2 |  | 1750 |  |
| 28 |  | CCCCCCCCn1c(=O)[nH]c(=O)c2[nH]c(O)nc21 | 6.5 |  |  | inhibition [1]: 15%; IC50 [2]: 37 µM; logP [11]: 1.1 |
| 1.6 |  | CCCCCCCCCCCCn1c(=O)[nH]c(=O)c2[nH]c(O)nc21 | 3.2 |  |  | logP [11]: 2.9 |
| 0.62 | 114 | CCCCCCCCn1c(N)c(N)c(=O)[nH]c1=O | 6.5 |  | 3350 | logP [11]: 2.05 |
| 0.26 | 144 | CCCCCCCCCCCCn1c(=O)[nH]c(N)c(N)c1=O | 5.5 |  | 4200 |  |
|  | 105 | CCCCCCn1c(N)c(N)c(=O)[nH]c1=O | 6.5 |  | 2010 | IC50 (Bos taurus [13]): 3.5 µM; logP [11]: 1.01 |
| 1.6 |  | CCCCCCCCCCCCn1c(O)nc2[nH]c(=O)[nH]c(=O)c21 | 27 |  |  | inhibition [1]: 10%; IC50 [2]: 200 µM |
| 0.75 |  | CCCCCCCCCCCCCCCCn1c(O)nc2c(=O)[nH]c(=O)[nH]c21 | 4.5 |  |  | inhibition [1]: 10%; IC50 [2]: 8 µM |
| 3.7 |  | CCCCCCCCCCn1c(=O)[nH]c(=O)c2[nH]c(O)nc21 | 3.5 |  |  | inhibition [1]: 8%; IC50 [2]: 22 µM; logP [11]: 2.04 |
| 0.3 | 105 | CCCCCCCCCCCCNc1nc(O)nc(O)c1N | 6.4 |  | 3500 |  |
